As a reminder, the IC50 is the concentration that inhibits the measured activity by half. For orientation: inhibition means the relative decrease from the control value, in per cent.

Test [1] has as its system SW480. The test is described as follows: Antagonistic cytotoxicity against human SW480 cells assessed as combination index measured after 3 days in presence of 5 uM 2(((24(2,4-dichlorobenzyl)oxy)naphthalen-1-yl)methyl)amino)ethan-1-ol by SRB assay. As to conditions: time 3 day. Type of test: functional. In general terms: The SRB assay estimates cell density from bound dye.

Test [2] relates to SW480. Nature of the test: Antagonistic cytotoxicity against human SW480 cells assessed as combination index measured after 3 days in presence of 5 uM KU60019 by SRB assay. In kind it is functional. As to conditions: time 3 day.
The test system of test [3] is MCF7. The test is described as follows: Additive cytotoxicity against human MCF7 cells measured after 6 days in presence of 5 uM KU55933 by SRB assay. In kind it is functional. As to conditions: time 6 day.
Test [4] has as its system MCF7. The test is described as follows: Additive cytotoxicity against human MCF7 cells assessed as combination index measured after 6 days in presence of 5 uM KU55933 by SRB assay. Type of test: functional. As to conditions: time 6 day.
In test [5] the test system is SW480. The test is described as follows: Synergistic cytotoxicity against human SW480 cells assessed as combination index measured after 9 days in presence of 50 nM AZD0156 by SRB assay. In kind it is functional. As to conditions: time 9 day.
Test [6] concerns MCF7. Nature of the test: Antagonistic cytotoxicity against human MCF7 cells in presence of 30 uM 3-Chloro-4-methoxy-N-((4-(oxazolo[4,5-b]pyridin-2-yl)phenyl)carbamothioyl)benzamide measured after 6 days by SRB assay. As to conditions: MCF7, 144 h. Type of test: functional, cell-based.
Test [7] deals with MCF7. Nature of the test: Antagonistic cytotoxicity against human MCF7 cells assessed as combination index in presence of 30 uM 3-Chloro-4-methoxy-N-((4-(oxazolo[4,5-b]pyridin-2-yl)phenyl)carbamothioyl)benzamide measured after 6 days by SRB assay. In kind it is functional. Particulars: time 6 day.
Test [8] relates to NCI-H1299. The test is described as follows: Additive cytotoxicity against human NCI-H1299 cells measured in presence of 5 uM KU60019 after 2 days by SRB assay. In kind it is functional, cell-based. Particulars: NCI-H1299, 48 h.
Test [9] deals with NCI-H1299. Nature of the test: Antagonistic cytotoxicity against human NCI-H1299 cells measured in presence of 50 nM AZD0156 after 2 days by SRB assay. Type of test: functional, cell-based. Particulars: NCI-H1299, 48 h.
The test system of test [10] is NCI-H1299. The test is described as follows: Additive cytotoxicity against human NCI-H1299 cells assessed as combination index measured in presence of 5 uM KU60019 after 2 days by SRB assay. Type of test: functional. As to conditions: time 2 day.
Test [11] deals with NCI-H1299. The test is described as follows: Antagonistic cytotoxicity against human NCI-H1299 cells assessed as combination index measured in presence of 50 nM AZD0156 after 2 days by SRB assay. Type of test: functional. As to conditions: time 2 day.
Test [12] relates to SW480. Nature of the test: Antitumor activity against human SW480 cells xenografted in BALB/c nude mouse assessed as reduction in tumor weight at 20 mg/kg, ip. In kind it is functional, organism-based.
The subject of test [13] is SW480. The test is described as follows: Antitumor activity against human SW480 cells xenografted in BALB/c nude mouse assessed as reduction in tumor weight at 20 mg/kg, ip in presence of 30 mg/kg, iv 2(((2-(2,4-dichlorobenzyl)oxy)naphthalen-1-yl)methyl)amino)ethan-1-ol. In kind it is functional, organism-based. In general terms: Xenograft models place foreign cells or tissue in a host animal.

Test [14] deals with MCF7. Nature of the test: cells. As to conditions: Homo sapiens, MCF7, 144 h.
Test [15] deals with SW480. The test is described as follows: Antagonistic cytotoxicity against human SW480 cells measured after 3 days in presence of 50 nM AZD0156 by SRB assay. Type of test: functional, cell-based. As to conditions: SW480, 72 h.
For test [16], the system named is MCF7. The test is described as follows: Synergistic cytotoxicity against human MCF7 cells assessed as combination index measured after 6 days in presence of 5 uM KU55933 by SRB assay. Type of test: functional. As to conditions: time 6 day.
In test [17] the test system is MCF7. Nature of the test: Additive cytotoxicity against human MCF7 cells assessed as combination index in presence of 10 uM 3-Chloro-4-methoxy-N-((4-(oxazolo[4,5-b]pyridin-2-yl)phenyl)carbamothioyl)benzamide measured after 6 days by SRB assay. Type of test: functional. As to conditions: time 6 day.
Test [18] has as its system MCF7. Nature of the test: Induction of apoptosis in human MCF7 cells at 62 nM in presence of 1 to 5 uM KU60019 measured after 6 days by Annexin V-FITC/propidium iodide staining based flow cytometry analysis. Type of test: functional, cell-based. Particulars: time 6.0 day. (In flow cytometry, cells or beads pass a laser one at a time.)
In test [19] the test system is MCF7. Nature of the test: Induction of apoptosis in human MCF7 cells at 62 nM in presence of 50 nM AZD0156 measured after 6 days by Annexin V-FITC/propidium iodide staining based flow cytometry analysis. As to conditions: time 6.0 day. In kind it is functional, cell-based.
Test [20] has as its system MCF7. The test is described as follows: Induction of cell cycle arrest in human MCF7 cells assessed as accumulation of cells at S-phase measured after 24 hrs by PI staining based flow cytometric analysis. Type of test: functional. Particulars: DDE = dose-dependent effect.
Test [21] relates to MCF7. Nature of the test: Induction of cell cycle arrest in human MCF7 cells assessed as accumulation of cells at S-phase in presence of 5 uM KU60019 measured after 24 hrs by PI staining based flow cytometric analysis. In kind it is functional.
Test [22] concerns MCF7. Nature of the test: Induction of cell cycle arrest in human MCF7 cells assessed as decrease in accumulation of cells at G1-phase in presence of 5 uM KU60019 measured after 24 hrs by PI staining based flow cytometric analysis. In kind it is functional.
Test [23] addresses T1, Serine-protein kinase ATM (Homo sapiens, UniProt Q13315). Nature of the test: Inhibition of ATM (unknown origin) assessed as decrease in phosphorylation of ATM at 25 uM measured in presence of 1 to 5 uM KU60019 by Western blot analysis.
Test [24] has as its target T1, Serine-protein kinase ATM. Nature of the test: Inhibition of ATM (unknown origin) assessed as decrease in phosphorylation of ATM at 25 uM measured in presence of 50 nM AZD0156 by Western blot analysis.
Test [25] deals with T1, Serine-protein kinase ATM. Nature of the test: Inhibition of ATM (unknown origin) assessed as decrease in phosphorylation of KAP1 at 25 uM measured in presence of 1 to 5 uM KU60019 by Western blot analysis.
The target of test [26] is T1, Serine-protein kinase ATM. Nature of the test: Inhibition of ATM (unknown origin) assessed as decrease in phosphorylation of KAP1 at 25 uM measured in presence of 50 nM AZD0156 by Western blot analysis.
Test [27] addresses T1, Serine-protein kinase ATM. The test is described as follows: Inhibition of ATM (unknown origin) assessed as decrease in phosphorylation of p21 at 25 uM measured in presence of 1 uM KU60019 by Western blot analysis.
Test [28] addresses T1, Serine-protein kinase ATM. Nature of the test: Inhibition of ATM (unknown origin) assessed as decrease in phosphorylation of p21 at 25 uM measured in presence of 5 uM KU60019 by Western blot analysis.
The target in test [29] is T1, Serine-protein kinase ATM. Nature of the test: Inhibition of ATM (unknown origin) assessed as decrease in phosphorylation of p21 at 25 uM measured in presence of 50 nM AZD0156 by Western blot analysis.
The test system of test [30] is NCI-H1299. Nature of the test: Synergistic cytotoxicity against human NCI-H1299 cells measured in presence of 5 uM KU60019 after 2 days by SRB assay. In kind it is functional, cell-based. As to conditions: NCI-H1299, 48 h.
Test [31] concerns NCI-H1299. Nature of the test: Synergistic cytotoxicity against human NCI-H1299 cells measured in presence of 50 nM AZD0156 after 2 days by SRB assay. In kind it is functional, cell-based. Particulars: NCI-H1299, 48 h.
Test [32] deals with NCI-H1299. Nature of the test: Synergistic cytotoxicity against human NCI-H1299 cells assessed as combination index measured in presence of 5 uM KU60019 after 2 days by SRB assay. In kind it is functional. Particulars: time 2 day.
Test [33] relates to NCI-H1299. Nature of the test: Synergistic cytotoxicity against human NCI-H1299 cells assessed as combination index measured in presence of 50 nM AZD0156 after 2 days by SRB assay. In kind it is functional. As to conditions: time 2 day.
For test [34], the system named is MCF7. The test is described as follows: cells. As to conditions: Homo sapiens, MCF7, 144 h. This is another data set of the same source.
In test [35] the test system is MCF7. Nature of the test: cells. As to conditions: Homo sapiens, MCF7, 144 h. This is another data set of the same source.

Activity calls are given as the source filed them. The rule behind the calls is not given here.

T1 sequence (Q13315 whole entry): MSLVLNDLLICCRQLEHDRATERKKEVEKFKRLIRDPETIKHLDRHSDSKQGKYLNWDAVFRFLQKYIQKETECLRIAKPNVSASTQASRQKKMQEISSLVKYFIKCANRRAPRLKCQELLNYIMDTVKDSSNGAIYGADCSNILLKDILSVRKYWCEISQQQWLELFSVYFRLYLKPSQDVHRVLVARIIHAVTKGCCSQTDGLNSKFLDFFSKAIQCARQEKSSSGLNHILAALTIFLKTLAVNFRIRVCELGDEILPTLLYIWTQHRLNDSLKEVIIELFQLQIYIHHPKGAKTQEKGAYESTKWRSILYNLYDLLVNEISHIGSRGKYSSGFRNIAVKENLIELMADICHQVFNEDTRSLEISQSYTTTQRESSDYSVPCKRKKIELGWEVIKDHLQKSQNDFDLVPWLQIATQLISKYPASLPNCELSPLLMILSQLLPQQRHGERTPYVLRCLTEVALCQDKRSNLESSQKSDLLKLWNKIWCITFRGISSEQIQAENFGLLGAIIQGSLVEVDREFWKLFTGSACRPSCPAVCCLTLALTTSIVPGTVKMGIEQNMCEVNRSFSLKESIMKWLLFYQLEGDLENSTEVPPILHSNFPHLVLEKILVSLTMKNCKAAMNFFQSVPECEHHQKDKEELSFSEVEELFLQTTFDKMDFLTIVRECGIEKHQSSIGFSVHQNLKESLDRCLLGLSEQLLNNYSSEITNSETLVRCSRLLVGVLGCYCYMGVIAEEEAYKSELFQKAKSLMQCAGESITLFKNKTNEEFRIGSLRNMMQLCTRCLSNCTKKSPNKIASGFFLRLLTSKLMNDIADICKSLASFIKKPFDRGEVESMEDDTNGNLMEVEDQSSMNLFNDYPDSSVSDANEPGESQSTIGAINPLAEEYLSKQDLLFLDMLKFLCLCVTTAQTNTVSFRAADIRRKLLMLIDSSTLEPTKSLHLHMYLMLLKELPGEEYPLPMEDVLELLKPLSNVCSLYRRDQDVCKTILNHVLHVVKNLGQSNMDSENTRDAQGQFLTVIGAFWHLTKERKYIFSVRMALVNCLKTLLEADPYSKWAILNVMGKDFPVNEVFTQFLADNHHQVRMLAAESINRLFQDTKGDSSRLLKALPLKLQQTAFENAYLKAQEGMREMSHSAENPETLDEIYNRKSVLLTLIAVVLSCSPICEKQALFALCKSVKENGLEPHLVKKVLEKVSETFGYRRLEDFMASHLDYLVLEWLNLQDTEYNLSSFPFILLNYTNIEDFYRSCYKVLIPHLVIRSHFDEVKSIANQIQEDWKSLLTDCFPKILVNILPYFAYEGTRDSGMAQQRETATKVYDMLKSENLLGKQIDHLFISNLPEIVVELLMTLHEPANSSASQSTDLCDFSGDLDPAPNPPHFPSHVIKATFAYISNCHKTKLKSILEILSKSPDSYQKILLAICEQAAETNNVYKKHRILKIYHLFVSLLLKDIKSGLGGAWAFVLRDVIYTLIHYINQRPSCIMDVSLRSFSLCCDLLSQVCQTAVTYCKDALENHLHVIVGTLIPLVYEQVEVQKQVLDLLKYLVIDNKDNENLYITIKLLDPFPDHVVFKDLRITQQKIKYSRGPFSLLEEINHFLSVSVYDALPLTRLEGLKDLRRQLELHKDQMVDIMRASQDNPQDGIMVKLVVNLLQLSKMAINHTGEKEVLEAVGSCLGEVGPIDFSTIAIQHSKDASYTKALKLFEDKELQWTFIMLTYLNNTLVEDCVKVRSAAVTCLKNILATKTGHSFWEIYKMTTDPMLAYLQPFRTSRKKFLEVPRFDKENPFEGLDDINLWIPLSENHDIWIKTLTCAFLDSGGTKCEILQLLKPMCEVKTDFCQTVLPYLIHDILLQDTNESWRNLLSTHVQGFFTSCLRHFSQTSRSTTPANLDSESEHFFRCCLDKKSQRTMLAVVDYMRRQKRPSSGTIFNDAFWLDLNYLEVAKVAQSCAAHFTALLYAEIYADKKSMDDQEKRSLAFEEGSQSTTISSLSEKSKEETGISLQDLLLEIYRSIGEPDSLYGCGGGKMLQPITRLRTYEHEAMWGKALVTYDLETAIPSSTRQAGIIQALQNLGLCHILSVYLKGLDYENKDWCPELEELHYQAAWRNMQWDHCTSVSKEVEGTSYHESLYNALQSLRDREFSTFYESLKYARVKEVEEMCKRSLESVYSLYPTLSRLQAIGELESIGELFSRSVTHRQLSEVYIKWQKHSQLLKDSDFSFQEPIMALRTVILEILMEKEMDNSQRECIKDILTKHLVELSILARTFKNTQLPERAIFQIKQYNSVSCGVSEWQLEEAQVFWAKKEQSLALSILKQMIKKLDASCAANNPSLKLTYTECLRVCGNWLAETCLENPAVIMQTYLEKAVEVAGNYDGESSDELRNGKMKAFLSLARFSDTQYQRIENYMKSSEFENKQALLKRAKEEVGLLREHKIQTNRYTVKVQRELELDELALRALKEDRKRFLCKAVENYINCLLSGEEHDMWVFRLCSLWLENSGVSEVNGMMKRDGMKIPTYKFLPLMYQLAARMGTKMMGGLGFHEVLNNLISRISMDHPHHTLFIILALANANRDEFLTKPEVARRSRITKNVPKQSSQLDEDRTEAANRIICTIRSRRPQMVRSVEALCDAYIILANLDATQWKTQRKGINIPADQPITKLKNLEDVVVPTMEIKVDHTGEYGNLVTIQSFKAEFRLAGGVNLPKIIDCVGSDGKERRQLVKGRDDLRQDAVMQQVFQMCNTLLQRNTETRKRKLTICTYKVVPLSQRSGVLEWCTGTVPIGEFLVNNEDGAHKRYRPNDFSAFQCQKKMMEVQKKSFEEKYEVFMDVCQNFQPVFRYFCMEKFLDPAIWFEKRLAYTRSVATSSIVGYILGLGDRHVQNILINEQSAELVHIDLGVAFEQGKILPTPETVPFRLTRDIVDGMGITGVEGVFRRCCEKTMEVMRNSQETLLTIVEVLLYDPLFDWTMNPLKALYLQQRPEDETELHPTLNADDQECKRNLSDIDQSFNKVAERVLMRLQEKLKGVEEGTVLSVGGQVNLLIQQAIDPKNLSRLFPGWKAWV

As to `CCc1c2c(nc3ccc(OC(=O)N4CCC(N5CCCCC5)CC4)cc13)-c1cc3c(c(=O)n1C2)COC(=O)[C@]3(O)CC` [IRINOTECAN], the CI in the test on SW480 [1] was 3.2; in the test on SW480 [2] it was 3.4; in the test with MCF7 [3], 0.16; in the test with MCF7 [4], 0.18; with SW480 [5], 0.22; in the test with MCF7 [7], 1.49. In addition, the CI in the test on NCI-H1299 [10] was 1.04; in the test on NCI-H1299 [11], 1.13. Besides, the IC50 with MCF7 [6] is 2.42 µM; with NCI-H1299 [8] it was 9.83 µM; in the test on NCI-H1299 [9] it was 15.2 µM; in the test with MCF7 [14], 0.21 µM. The result with SW480 [12] and in the test on SW480 [13] was Active.

Regarding `COc1cc([C@@H]2c3cc4c(cc3[C@@H](O[C@@H]3O[C@@H]5CO[C@@H](C)O[C@H]5[C@H](O)[C@H]3O)[C@H]3COC(=O)[C@H]23)OCO4)cc(OC)c1O` [ETOPOSIDE], the IC50 in the test with SW480 [15] amounted to 3.6 µM; in the test with NCI-H1299 [30], 5.75 µM; in the test with NCI-H1299 [31], 8.86 µM; in the test on MCF7 [34], 0.59 µM; with MCF7 [35], 0.56 µM. In addition, the CI in the test on SW480 [1] came out at 2; with SW480 [2], 1.7; in the test on MCF7 [16] it was 0.73; with SW480 [5] it was 0.17; in the test with MCF7 [17], 1.01; in the test with NCI-H1299 [32], 0.84. Besides, the CI in the test with NCI-H1299 [33] turned out to be 0.82. For the same compound, the result with MCF7 [18], in the test with MCF7 [19], in the test on MCF7 [21] and with MCF7 [22] was Active. Further, the Activity result with MCF7 [20] is “Dde”. Moreover, the inhibition result in test [23], in test [24], in test [25] and in [26] was “Active” each time. In addition, the inhibition in test [27] amounted to 25%; in [28] it was 53%; in test [29], 41%.

Source of the values: ChEMBL document CHEMBL5154770, “Discovery of novel ataxia telangiectasia mutated (ATM) kinase modulators: Computational simulation, biological evaluation and cancer combinational chemotherapy study” (Eur J Med Chem, 2022).
